In the supplement of paper PMC10627819:

Legend:
[1] = tested on: B. subtilis 168; test: fitness (endpoint OD595 vs no drug) (fraction); higher = more growth
In short: (§1)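 Background-subtracted growth curves were the basis for fitness, taken as the optical density at entry into stationary phase over the robust mean of no-drug control wells. A cap of 1 was applied. The curves came from OD595 readings every 30 min for 14 h at 37 °C, in 384-well plates seeded at OD595 0.01 with 30 µl, or 55 µl for S. pneumoniae.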

[2] = tested on: S. pneumoniae D39V; test: as above
In short: as §1

[3] = tested on: S. aureus Newman; test: Bliss interaction score (quartile over a dose matrix) (fitness difference); higher = more antagonism (negative = synergy)
In short: (§2)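 The Bliss score is observed fitness minus expected fitness, where the expected value is the product of single-drug fitness values inferred from combination data. Fitness is OD595 at entry into stationary phase normalised to the plate's robust no-drug mean and capped at 1. Scores are reported as quartiles spanning technical, biological and donor/recipient replicates.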

[4] = tested on: B. subtilis 168; test: as above
In short: as §2

[5] = tested on: S. aureus DSM 20231; test: as above
In short: as §2

[6] = tested on: S. pneumoniae D39V; test: as above
In short: as §2
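For Bliss interaction score (quartile over a dose matrix) in this document: first quartile when negative (synergy) and third quartile when positive (antagonism).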

C[C@H]1COc2c(N3CCN(C)CC3)c(F)cc3c(=O)c(C(=O)O)cn1c23 [Levofloxacin] + CCC[C@@H]1C[C@@H](C(=O)N[C@@H]([C@H]2O[C@H](SC)[C@H](O)[C@@H](O)[C@H]2O)[C@@H](C)O)N(C)C1 [Lincomycin]
fitness, [1], one replicate
Details	partner 0.1 µg/mL	partner 0.2 µg/mL	partner 0.4 µg/mL	partner 0.8 µg/mL	partner 1.6 µg/mL
first compound 0.001 µg/mL	–	–	0.789	0.889	0.849
first compound 0.002 µg/mL	≥ 1	0.968	–	0.797	0.767
first compound 0.0039 µg/mL	≥ 1	0.975	–	0.743	0.806
first compound 0.0078 µg/mL	0.997	0.961	0.945	–	–

Details	fitness
[1], first compound 0.002 µg/mL, partner 0.4 µg/mL	0.897
[1], first compound 0.0039 µg/mL, partner 0.4 µg/mL	0.888
[1], first compound 0.0312 µg/mL, partner 0.1 µg/mL	0.0367
[1], first compound 0.0312 µg/mL, partner 0.2 µg/mL	0.0349
[1], first compound 0.0312 µg/mL, partner 0.4 µg/mL	0.0483
[1], first compound 0.0625 µg/mL, partner 0.1 µg/mL	0.0423
[1], first compound 0.0625 µg/mL, partner 0.2 µg/mL	0.0292
[1], first compound 0.0625 µg/mL, partner 0.4 µg/mL	0.0493
[1], first compound 0.125 µg/mL, partner 0.1 µg/mL	0.0441
[1], first compound 0.125 µg/mL, partner 0.2 µg/mL	0.0449
[1], first compound 0.125 µg/mL, partner 0.4 µg/mL	0.0489
[2], first compound 0.1725 µg/mL, partner 0.2 µg/mL	0.768
[2], first compound 0.1725 µg/mL, partner 0.4 µg/mL	0.7
[2], first compound 0.1725 µg/mL, partner 0.8 µg/mL	0.266
[2], first compound 0.2 µg/mL, partner 0.215 µg/mL	0.807
[2], first compound 0.2 µg/mL, partner 0.43 µg/mL	0.77
[2], first compound 0.2 µg/mL, partner 0.86 µg/mL	0.5
[2], first compound 0.345 µg/mL, partner 0.2 µg/mL	0.726
[2], first compound 0.345 µg/mL, partner 0.4 µg/mL	0.639
[2], first compound 0.345 µg/mL, partner 0.8 µg/mL	0.201
[2], first compound 0.4 µg/mL, partner 0.215 µg/mL	0.754
[2], first compound 0.4 µg/mL, partner 0.43 µg/mL	0.68
[2], first compound 0.4 µg/mL, partner 0.86 µg/mL	0.379
[2], first compound 0.69 µg/mL, partner 0.2 µg/mL	0.542
[2], first compound 0.69 µg/mL, partner 0.4 µg/mL	0.503
[2], first compound 0.69 µg/mL, partner 0.8 µg/mL	0.18
[2], first compound 0.8 µg/mL, partner 0.215 µg/mL	0.691
[2], first compound 0.8 µg/mL, partner 0.43 µg/mL	0.596
[2], first compound 0.8 µg/mL, partner 0.86 µg/mL	0.272

Details	Bliss interaction score
[3]	0.0423
[4]	0.0149
[5]	0.169
[6]	0.104

C[C@H]1COc2c(N3CCN(C)CC3)c(F)cc3c(=O)c(C(=O)O)cn1c23 [Levofloxacin] + CCN(CC)CCOC(=O)c1ccc(N)cc1 [Procaine]
fitness, one replicate
Details	first compound 0.001 µg/mL	first compound 0.002 µg/mL	first compound 0.0039 µg/mL	first compound 0.2 µg/mL	first compound 0.4 µg/mL	first compound 0.8 µg/mL
[1], partner 85.5 µg/mL	0.882	0.83	0.861	–	–	–
[1], partner 171 µg/mL	0.923	0.824	0.869	–	–	–
[1], partner 342 µg/mL	0.912	0.849	0.872	–	–	–
[2], partner 85.5 µg/mL	–	–	–	0.924	0.815	0.372
[2], partner 171 µg/mL	–	–	–	≥ 1	0.853	0.49
[2], partner 342 µg/mL	–	–	–	0.923	0.86	0.501

fitness
Details	first compound 0.0312 µg/mL	first compound 0.0625 µg/mL	first compound 0.125 µg/mL	first compound 0.1725 µg/mL	first compound 0.345 µg/mL	first compound 0.69 µg/mL
[1], partner 85.5 µg/mL	0.0534	0.0358	0.0491	–	–	–
[1], partner 171 µg/mL	0.0369	0.0387	0.0458	–	–	–
[1], partner 342 µg/mL	0.0441	0.0408	0.0398	–	–	–
[2], partner 85.5 µg/mL	–	–	–	0.937	0.878	0.602
[2], partner 171 µg/mL	–	–	–	0.946	0.87	0.62
[2], partner 342 µg/mL	–	–	–	0.918	0.877	0.625

Details	Bliss interaction score
[3]	0.108
[4]	-0.0156
[5]	-0.108
[6]	0.053

C[C@H]1COc2c(N3CCN(C)CC3)c(F)cc3c(=O)c(C(=O)O)cn1c23 [Levofloxacin] + CN1C2=CC=CC=C2N=C3C1=CC=CC3=O [Pyocyanin]
fitness, one replicate
Details	first compound 0.001 µg/mL	first compound 0.002 µg/mL	first compound 0.0039 µg/mL	first compound 0.2 µg/mL	first compound 0.4 µg/mL	first compound 0.8 µg/mL
[1], partner 1.25 µg/mL	0.891	0.8	0.846	–	–	–
[1], partner 2.5 µg/mL	0.864	0.813	0.795	–	–	–
[1], partner 5 µg/mL	0.68	0.621	0.64	–	–	–
[2], partner 0.325 µg/mL	–	–	–	0.878	0.371	0.296
[2], partner 0.65 µg/mL	–	–	–	0.965	0.875	0.679

fitness
Details	first compound 0.0312 µg/mL	first compound 0.0625 µg/mL	first compound 0.125 µg/mL	first compound 0.1725 µg/mL	first compound 0.345 µg/mL	first compound 0.69 µg/mL
[1], partner 1.25 µg/mL	0.0394	0.0289	0.03	–	–	–
[1], partner 2.5 µg/mL	0.0377	0.0408	0.0364	–	–	–
[1], partner 5 µg/mL	0.0364	0.0433	0.0258	–	–	–
[2], partner 0.325 µg/mL	–	–	–	0.988	0.936	0.668
[2], partner 0.65 µg/mL	–	–	–	0.958	0.896	0.596
[2], partner 1.3 µg/mL	–	–	–	0.782	0.74	0.459

Details	Bliss interaction score
[3]	-0.0335
[4]	-0.0161
[5]	0.0335
[6]	0.0846

C[C@H]1COc2c(N3CCN(C)CC3)c(F)cc3c(=O)c(C(=O)O)cn1c23 [Levofloxacin] + CN(C)C(=O)C(CCN1CCC(O)(c2ccc(Cl)cc2)CC1)(c1ccccc1)c1ccccc1 [Loperamide]
fitness, one replicate
Details	first compound 0.001 µg/mL	first compound 0.002 µg/mL	first compound 0.0039 µg/mL	first compound 0.2 µg/mL	first compound 0.4 µg/mL	first compound 0.8 µg/mL
[1], partner 25 µg/mL	0.807	0.714	0.714	–	–	–
[1], partner 50 µg/mL	0.618	0.172	0.206	–	–	–
[1], partner 100 µg/mL	0.613	0.51	0.581	–	–	–
[2], partner 68.57 µg/mL	–	–	–	0.913	0.896	0.864

Details	fitness
[1], first compound 0.0312 µg/mL, partner 25 µg/mL	0.0337
[1], first compound 0.0312 µg/mL, partner 50 µg/mL	0.0298
[1], first compound 0.0312 µg/mL, partner 100 µg/mL	0.0296
[1], first compound 0.0625 µg/mL, partner 25 µg/mL	0.0122
[1], first compound 0.0625 µg/mL, partner 50 µg/mL	0.0229
[1], first compound 0.0625 µg/mL, partner 100 µg/mL	0.0349
[1], first compound 0.125 µg/mL, partner 25 µg/mL	0.0335
[1], first compound 0.125 µg/mL, partner 50 µg/mL	0.0386
[1], first compound 0.125 µg/mL, partner 100 µg/mL	0.0401
[2], first compound 0.1725 µg/mL, partner 20 µg/mL	≥ 1
[2], first compound 0.1725 µg/mL, partner 40 µg/mL	≥ 1
[2], first compound 0.2 µg/mL, partner 17.14 µg/mL	0.877
[2], first compound 0.2 µg/mL, partner 34.28 µg/mL	0.9
[2], first compound 0.345 µg/mL, partner 20 µg/mL	0.998
[2], first compound 0.345 µg/mL, partner 40 µg/mL	≥ 1
[2], first compound 0.4 µg/mL, partner 17.14 µg/mL	0.901
[2], first compound 0.4 µg/mL, partner 34.28 µg/mL	0.883
[2], first compound 0.69 µg/mL, partner 20 µg/mL	0.787
[2], first compound 0.69 µg/mL, partner 40 µg/mL	0.837
[2], first compound 0.8 µg/mL, partner 34.28 µg/mL	0.642

Details	Bliss interaction score
[3]	0.0501
[4]	0.155
[5]	0.0444
[6]	0.189
